Measurements: patent publication US20080312283A1, “Use of Hydroxylamine Derivates for Inhibiting Vitrectomy-Induced Cataracts” (Othera Pharmaceuticals, Inc., priority 2005, published 2008)

Experiments:
[1] = system: retinal S-antigen-induced experimental autoimmune uveoretinitis (EAU); conditions: systemic injection, rat model (Zamir et al. 1999); cited from earlier work
[2] = Ocular tissue, urine and plasma levels of total radioactivity following a single intravitreal dose; format: in vivo, New Zealand White rabbits
Procedure: A randomized, single treatment study, in nine groups of three NZW rabbits per group, was conducted. Animals were assigned to study groups by a computerized randomization program designed to achieve similar body weights per group. Naïve animals received an intra-vitreous injection of the test article at a nominal dose of 2.0 mg*eq [^14C]Tempol-H (1,4-dihydroxy-2,2,6,6-tetramethylpiperidine(2,4,6-^14C3)). A dose of 0.1 mL, containing 2.18 μCi was administered into both eyes. At nine specified time points post dose (1, 30, 60 minutes, 2, 4, 8, 24, 48, and 120 hours), three animals per group were euthanized and terminal samples were collected. The following tissues were harvested from each eye of all animals: aqueous humor, cornea, iris/ciliary body complex, vitreous humor, lens, retina-choroid plexus and optic nerve. Blood was collected from the marginal ear vein of all rabbits into tubes containing K3EDTA; urine was cage-collected daily from three animals up to 120 hour post dosing. Total radioactivity was determined in all samples by liquid scintillation counting.

cataract = conditions: Zigler et al., U.S. Pat. No. 6,001,853; cited from earlier work
lens epithelial cells = conditions: Mitchell et al. 1991; Krishna et al. 1991; cited from earlier work
[3] = New Zealand White, rabbit, in vivo, 8 h

SMILES: CC1(C)CC(O)CC(C)(C)N1[O] [tempol, 4-hydroxy-2,2,6,6,-tetramethylpiperidine-1-N-oxyl]
- severity of experimental autoimmune uveoretinitis [1]: reduced the severity

SMILES: CC1(C)CC(O)CC(C)(C)N1O [Tempol-H, 1,4-dihydroxy-2,2,6,6-tetramethylpiperidine]
- concentration of radioactivity in the aqueous humor [2, 3]: ~30±8 μg eq/g
- concentration of radioactivity in the cornea [2, 3]: ~2±0.1 μg eq/g
- concentration of radioactivity in the iris/ciliary body [2, 3]: ~6±0.5 μg eq/g
- concentration of radioactivity in the lens [2, 3]: ~41±6 μg eq/g
- concentration of radioactivity in the optic nerve [2, 3]: ~4±0.5 μg eq/g
- concentration of radioactivity in the retina-choroid plexus [2, 3]: ~18±2 μg eq/g
- concentration of radioactivity in the vitreous humor [2, 3]: ~25±3 μg eq/g
- tissues with the highest concentrations of radioactivity ([2]; one minute post dosing, intravitreal): retina-choroid plexus, vitreous humor and iris-ciliary body complex
- levels of total radioactivity in sampled ocular tissues, blood and plasma ([2]; single intravitreal dose, all sampled ocular tissues, blood and plasma): Quantifiable levels of total radioactivity were observed in all sampled ocular tissues, blood and plasma
- anti-cataractogenic effect compared with the corresponding nitroxide (cataract): better anti-cataractogenic composition than the corresponding nitroxide
- protection of lens epithelial cells from oxidative damage (lens epithelial cells): afforded no such protection
